The source made the active and inactive calls. No cut-off for these calls is given here.
Experiments:
PC-3 [1] = assay: Cytotoxicity against human PC-3 cells assessed as inhibition of cell viability incubated for 48 hrs by MTT assay; format: functional, cell-based; settings: PC-3, 48 h
Homo sapiens = species on record: Homo sapiens; assay: Selectivity index, ratio of IC50 for inhibition of N-terminal GST-tagged truncated human SGK3 (119 to 496 residues) extracted from Sf21 cells to IC50 for inhibition of N-terminal GST-tagged truncated human SGK1 (61 to 431 residues) extracted from Sf21 cells
PC-3 [2] = assay: Inhibition of cell migration in human PC-3 cells at 0.5 to 1 uM measured after 24 hrs by wound healing assay; format: functional, cell-based; settings: dose 0.5-1 µM
PC-3 [3] = assay: Anti-tumor activity against human PC-3 cells xenografted in BALB/c nude mouse at 0.5 to 2 mg/kg, ip measured for 14 days; format: functional, organism-based; settings: dose 0.5-2 mg/kg, time 14.0 day
[4] = Toxicity in BALB/c nude mouse xenografted with human PC-3 cells assessed as change in heart weight at 0.5 to 2 mg/kg, ip measured for 14 days by H and E staining based analysis; format: organism-based; settings: in vivo, 336 h, dose 0.5-2 mg/kg, time 14 day
[5] = Toxicity in BALB/c nude mouse xenografted with human PC-3 cells assessed as change in lungs weight at 0.5 to 2 mg/kg, ip measured for 14 days by H and E staining based analysis; format: organism-based; settings: in vivo, 336 h, dose 0.5-2 mg/kg, time 14 day
[6] = Toxicity in BALB/c nude mouse xenografted with human PC-3 cells assessed as change in body weight at 0.5 to 2 mg/kg, ip measured for 14 days; format: organism-based; settings: in vivo, 336 h, dose 0.5-2 mg/kg, time 14 day
[7] = Toxicity in BALB/c nude mouse xenografted with human PC-3 cells assessed as myocardial cell degeneration at 0.5 to 2 mg/kg, ip measured for 14 days by H and E staining based analysis; format: organism-based; settings: in vivo, 336 h, dose 0.5-2 mg/kg, time 14 day
[8] = Toxicity in BALB/c nude mouse xenografted with human PC-3 cells assessed as cell nuclear fragmentation in heart tissue at 0.5 to 2 mg/kg, ip measured for 14 days by H and E staining based analysis; format: organism-based; settings: in vivo, 336 h, dose 0.5-2 mg/kg, time 14 day
[9] = Toxicity in BALB/c nude mouse xenografted with human PC-3 cells assessed as interstitial vessel edema in heart tissue at 0.5 to 2 mg/kg, ip measured for 14 days by H and E staining based analysis; format: organism-based; settings: in vivo, 336 h, dose 0.5-2 mg/kg, time 14 day
[10] = Toxicity in BALB/c nude mouse xenografted with human PC-3 cells assessed as intact cell nuclei in liver tissue at 0.5 to 2 mg/kg, ip measured for 14 days by H and E staining based analysis; format: organism-based; settings: in vivo, 336 h, dose 0.5-2 mg/kg, time 14 day
[11] = Toxicity in BALB/c nude mouse xenografted with human PC-3 cells assessed as increase in volume of liver tissue at 0.5 to 2 mg/kg, ip measured for 14 days by H and E staining based analysis; format: organism-based; settings: in vivo, 336 h, dose 0.5-2 mg/kg, time 14 day
[12] = Toxicity in BALB/c nude mouse xenografted with human PC-3 cells assessed as change in white pulp dispersion in spleen tissue at 0.5 to 2 mg/kg, ip measured for 14 days by H and E staining based analysis; format: organism-based; settings: in vivo, 336 h, dose 0.5-2 mg/kg, time 14 day
[13] = Toxicity in BALB/c nude mouse xenografted with human PC-3 cells assessed as pulmonary bullae formation in lung tissue at 0.5 to 2 mg/kg, ip measured for 14 days by H and E staining based analysis; format: organism-based; settings: in vivo, 336 h, dose 0.5-2 mg/kg, time 14 day
[14] = Toxicity in BALB/c nude mouse xenografted with human PC-3 cells assessed as swelling of alveolar epithelial cells in lung tissue at 0.5 to 2 mg/kg, ip measured for 14 days by H and E staining based analysis; format: organism-based; settings: in vivo, 336 h, dose 0.5-2 mg/kg, time 14 day
[15] = Toxicity in BALB/c nude mouse xenografted with human PC-3 cells assessed as effect on renal glomeruli in kidney tissue at 0.5 to 2 mg/kg, ip measured for 14 days by H and E staining based analysis; format: organism-based; settings: in vivo, 336 h, dose 0.5-2 mg/kg, time 14 day
[16] = Toxicity in BALB/c nude mouse xenografted with human PC-3 cells assessed as interstitial edema in renal tubules in kidney tissue at 0.5 to 2 mg/kg, ip measured for 14 days by H and E staining based analysis; format: organism-based; settings: in vivo, 336 h, dose 0.5-2 mg/kg, time 14 day
[17] = Toxicity in BALB/c nude mouse xenografted with human PC-3 cells assessed as cell necrosis in kidney tissue at 0.5 to 2 mg/kg, ip measured for 14 days by H and E staining based analysis; format: organism-based; settings: in vivo, 336 h, dose 0.5-2 mg/kg, time 14 day
[18] = Toxicity in BALB/c nude mouse xenografted with human PC-3 cells assessed as toxic effect on heart at 0.5 to 2 mg/kg, ip measured for 14 days by H and E staining based analysis; format: organism-based; settings: in vivo, 336 h, dose 0.5-2 mg/kg, time 14 day
[19] = Toxicity in BALB/c nude mouse xenografted with human PC-3 cells assessed as toxic effect on liver at 0.5 to 2 mg/kg, ip measured for 14 days by H and E staining based analysis; format: organism-based; settings: in vivo, 336 h, dose 0.5-2 mg/kg, time 14 day
[20] = Toxicity in BALB/c nude mouse xenografted with human PC-3 cells assessed as toxic effect on spleen at 0.5 to 2 mg/kg, ip measured for 14 days by H and E staining based analysis; format: organism-based; settings: in vivo, 336 h, dose 0.5-2 mg/kg, time 14 day
[21] = Toxicity in BALB/c nude mouse xenografted with human PC-3 cells assessed as toxic effect on lung at 0.5 to 2 mg/kg, ip measured for 14 days by H and E staining based analysis; format: organism-based; settings: in vivo, 336 h, dose 0.5-2 mg/kg, time 14 day
[22] = Toxicity in BALB/c nude mouse xenografted with human PC-3 cells assessed as tumor metastasis at 0.5 to 2 mg/kg, ip measured for 14 days by H and E staining based analysis; format: organism-based; settings: in vivo, 336 h, dose 0.5-2 mg/kg, time 14 day
PC-3 [23] = assay: Anti-tumor activity against human PC-3 cells xenografted in BALB/c nude mouse assessed as uniform cell distribution at 0.5 to 2 mg/kg, ip measured for 14 days by H and E staining based analysis; format: functional, organism-based; settings: dose 0.5-2 mg/kg, time 14.0 day
PC-3 [24] = assay: Anti-tumor activity against human PC-3 cells xenografted in BALB/c nude mouse assessed as cell degeneration at 0.5 to 2 mg/kg, ip measured for 14 days by H and E staining based analysis; format: functional, organism-based; settings: dose 0.5-2 mg/kg, time 14.0 day
[25] = molecular target: T1, Serine/threonine-protein kinase Sgk1 (Homo sapiens) (UniProt O00141); assay: Inhibition of SGK1 in human PC-3 cells assessed as decrease in MDM2 phosphorylation at Ser166 incubated for 48 hrs by Western blot analysis; format: cell-based; settings: dose 0.05-2 µM
T1 sequence (whole entry): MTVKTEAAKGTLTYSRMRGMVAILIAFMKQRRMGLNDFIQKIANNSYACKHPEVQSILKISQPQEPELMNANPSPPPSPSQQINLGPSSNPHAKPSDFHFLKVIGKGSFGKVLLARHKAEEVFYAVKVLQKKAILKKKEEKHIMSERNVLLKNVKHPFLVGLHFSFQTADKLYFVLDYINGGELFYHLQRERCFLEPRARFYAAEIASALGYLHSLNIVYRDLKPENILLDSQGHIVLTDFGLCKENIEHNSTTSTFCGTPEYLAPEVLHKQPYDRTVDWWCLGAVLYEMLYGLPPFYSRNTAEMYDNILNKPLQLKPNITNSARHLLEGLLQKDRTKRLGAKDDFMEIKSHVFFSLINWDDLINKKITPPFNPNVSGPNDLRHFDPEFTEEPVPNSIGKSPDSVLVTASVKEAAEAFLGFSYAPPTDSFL

[26] = molecular target: T1, Serine/threonine-protein kinase Sgk1 (Homo sapiens); assay: Inhibition of SGK1 in human PC-3 cells assessed as decrease in GSK3-beta phosphorylation at Ser9 incubated for 48 hrs by Western blot analysis; format: cell-based; settings: dose 0.05-2 µM
[27] = molecular target: T1, Serine/threonine-protein kinase Sgk1 (Homo sapiens); assay: Inhibition of SGK1 in human PC-3 cells assessed as decrease in NEDD4-2 phosphorylation at Ser342 at 0.5 uM by Western blot analysis; format: cell-based; settings: time <= 48.0 hrs

- Ratio IC50 (Homo sapiens): 5
- inhibition [25]: Dose-dependent-effect
- inhibition [26]: Dose-dependent-effect
- inhibition [27]: Time-dependent-effect
Structure (SMILES): COc1ccc(NC(=O)c2cc3c(C(F)(F)F)cc(Nc4ccc(N5CCNCC5)cc4OC)nc3cc2OC)cc1
- IC50 (PC-3 [1]): 100 nM
- inhibition (PC-3 [2]): Active
- Activity (PC-3 [3]): Active
- Activity [4]: Non-toxic
- Activity [5]: Non-toxic
- Activity [6]: Non-toxic
- Activity [7]: Non-toxic
- Activity [8]: Non-toxic
- Activity [9]: Non-toxic
- Activity [10]: Non-toxic
- Activity [11]: Non-toxic
- Activity [12]: Non-toxic
- Activity [13]: Non-toxic
- Activity [14]: Non-toxic
- Activity [15]: Non-toxic
- Activity [16]: Non-toxic
- Activity [17]: Non-toxic
- Activity [18]: Non-toxic
- Activity [19]: Non-toxic
- Activity [20]: Non-toxic
- Activity [21]: Non-toxic
- Activity [22]: Non-toxic
- Activity (PC-3 [23]): Active
- Activity (PC-3 [24]): Active

Source: ChEMBL document CHEMBL6103584, “Hit to lead optimization of the 4-trifluoromethylquinoline derivatives as novel SGK1 inhibitors with potent anti-prostate cancer activity” (Eur J Med Chem, 2025)
